# From patent US10765114B2, “4-amino-6-(pyridyl and 2-substitutedphenyl)-picolinates and 6-amino-2-(pyridyl and 2-substitutedphenyl)-pyrimidine-4-carboxylates and their use as herbicides” (Dow AgroSciences LLC, priority 2013, dated 2020)
# Tested on: Key Broadleaf Weed and Crop Species
# Test: Post-Emergent Test II (Table 5)
# Type: in vivo
# Settings: Abutilon theophrasti, post-emergence, 336 h, ABUTH: velvetleaf (Abutilon theophrasti), application rate 70 (kg ai/ha; footnote: g ai/ha), read-out: Visual Growth Reduction (%) 14 Days After Application ABUTH
# How it was run: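 Plants grown in a greenhouse (~15 h photoperiod, 23-29° C day) to first or second true leaf stage were sprayed post-emergence at 187 L/ha with compound in acetone/DMSO-based aqueous spray containing crop oil concentrate and surfactant, applied at a high rate plus ½× to 1/16× serial rates. Injury was scored visually 14 days later, 0-100% versus untreated plants.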
row,Compound,pest or weed control at 70 g/ha [%]
1,"Cc1c(-c2cc(N)c(Cl)c(C(=O)O)n2)ccc(C(F)(F)F)c1F [Compound 61, 4-amino-3-chloro-6-(3-fluoro-2-methyl-4-(trifluoromethyl)phenyl)picolinic acid]",85 to 94

# Same assay, conditions: Abutilon theophrasti, post-emergence, 336 h, ABUTH: velvetleaf (Abutilon theophrasti), application rate 140 (kg ai/ha; footnote: g ai/ha), read-out: Visual Growth Reduction (%) 14 Days After Application ABUTH
row,Compound,pest or weed control at 140 g/ha [%]
1,"Cc1c(-c2cc(N)c(Cl)c(C(=O)O)n2)ccc(C(F)(F)F)c1F [Compound 61, 4-amino-3-chloro-6-(3-fluoro-2-methyl-4-(trifluoromethyl)phenyl)picolinic acid]",85 to 94

# Same assay, conditions: Amaranthus retroflexus, post-emergence, 336 h, AMARE: redroot pigweed (Amaranthus retroflexus), application rate 70 (kg ai/ha; footnote: g ai/ha), read-out: Visual Growth Reduction (%) 14 Days After Application AMARE
row,Compound,pest or weed control at 70 g/ha [%]
1,"Cc1c(-c2cc(N)c(Cl)c(C(=O)O)n2)ccc(C(F)(F)F)c1F [Compound 61, 4-amino-3-chloro-6-(3-fluoro-2-methyl-4-(trifluoromethyl)phenyl)picolinic acid]",0 to 29

# Same assay, conditions: Amaranthus retroflexus, post-emergence, 336 h, AMARE: redroot pigweed (Amaranthus retroflexus), application rate 140 (kg ai/ha; footnote: g ai/ha), read-out: Visual Growth Reduction (%) 14 Days After Application AMARE
row,Compound,pest or weed control at 140 g/ha [%]
1,"Cc1c(-c2cc(N)c(Cl)c(C(=O)O)n2)ccc(C(F)(F)F)c1F [Compound 61, 4-amino-3-chloro-6-(3-fluoro-2-methyl-4-(trifluoromethyl)phenyl)picolinic acid]",0 to 29

# Same assay, conditions: Brassica napus, post-emergence, 336 h, BRSSS: oilseed rape, canola (Brassica napus), application rate 70 (kg ai/ha; footnote: g ai/ha), read-out: Visual Growth Reduction (%) 14 Days After Application BRSSS
row,Compound,pest or weed control at 70 g/ha [%]
1,"Cc1c(-c2cc(N)c(Cl)c(C(=O)O)n2)ccc(C(F)(F)F)c1F [Compound 61, 4-amino-3-chloro-6-(3-fluoro-2-methyl-4-(trifluoromethyl)phenyl)picolinic acid]",45 to 59

# Same assay, conditions: Brassica napus, post-emergence, 336 h, BRSSS: oilseed rape, canola (Brassica napus), application rate 140 (kg ai/ha; footnote: g ai/ha), read-out: Visual Growth Reduction (%) 14 Days After Application BRSSS
row,Compound,pest or weed control at 140 g/ha [%]
1,"Cc1c(-c2cc(N)c(Cl)c(C(=O)O)n2)ccc(C(F)(F)F)c1F [Compound 61, 4-amino-3-chloro-6-(3-fluoro-2-methyl-4-(trifluoromethyl)phenyl)picolinic acid]",60 to 74

# Same assay, conditions: Chenopodium album, post-emergence, 336 h, CHEAL: lambsquarters (Chenopodium album), application rate 70 (kg ai/ha; footnote: g ai/ha), read-out: Visual Growth Reduction (%) 14 Days After Application CHEAL
row,Compound,pest or weed control at 70 g/ha [%]
1,"Cc1c(-c2cc(N)c(Cl)c(C(=O)O)n2)ccc(C(F)(F)F)c1F [Compound 61, 4-amino-3-chloro-6-(3-fluoro-2-methyl-4-(trifluoromethyl)phenyl)picolinic acid]",85 to 94

# Same assay, conditions: Chenopodium album, post-emergence, 336 h, CHEAL: lambsquarters (Chenopodium album), application rate 140 (kg ai/ha; footnote: g ai/ha), read-out: Visual Growth Reduction (%) 14 Days After Application CHEAL
row,Compound,pest or weed control at 140 g/ha [%]
1,"Cc1c(-c2cc(N)c(Cl)c(C(=O)O)n2)ccc(C(F)(F)F)c1F [Compound 61, 4-amino-3-chloro-6-(3-fluoro-2-methyl-4-(trifluoromethyl)phenyl)picolinic acid]",85 to 94

# Same assay, conditions: Euphorbia heterophylla, post-emergence, 336 h, EPHHL: wild poinsettia (Euphorbia heterophylla), application rate 70 (kg ai/ha; footnote: g ai/ha), read-out: Visual Growth Reduction (%) 14 Days After Application EPHHL
row,Compound,pest or weed control at 70 g/ha [%]
1,"Cc1c(-c2cc(N)c(Cl)c(C(=O)O)n2)ccc(C(F)(F)F)c1F [Compound 61, 4-amino-3-chloro-6-(3-fluoro-2-methyl-4-(trifluoromethyl)phenyl)picolinic acid]",95 to 100

# Same assay, conditions: Euphorbia heterophylla, post-emergence, 336 h, EPHHL: wild poinsettia (Euphorbia heterophylla), application rate 140 (kg ai/ha; footnote: g ai/ha), read-out: Visual Growth Reduction (%) 14 Days After Application EPHHL
row,Compound,pest or weed control at 140 g/ha [%]
1,"Cc1c(-c2cc(N)c(Cl)c(C(=O)O)n2)ccc(C(F)(F)F)c1F [Compound 61, 4-amino-3-chloro-6-(3-fluoro-2-methyl-4-(trifluoromethyl)phenyl)picolinic acid]",95 to 100

# Same assay, conditions: Helianthus annuus, post-emergence, 336 h, HELAN: sunflower (Helianthus annuus), application rate 70 (kg ai/ha; footnote: g ai/ha), read-out: Visual Growth Reduction (%) 14 Days After Application HELAN
row,Compound,pest or weed control at 70 g/ha [%]
1,"Cc1c(-c2cc(N)c(Cl)c(C(=O)O)n2)ccc(C(F)(F)F)c1F [Compound 61, 4-amino-3-chloro-6-(3-fluoro-2-methyl-4-(trifluoromethyl)phenyl)picolinic acid]",85 to 94

# Same assay, conditions: Helianthus annuus, post-emergence, 336 h, HELAN: sunflower (Helianthus annuus), application rate 140 (kg ai/ha; footnote: g ai/ha), read-out: Visual Growth Reduction (%) 14 Days After Application HELAN
row,Compound,pest or weed control at 140 g/ha [%]
1,"Cc1c(-c2cc(N)c(Cl)c(C(=O)O)n2)ccc(C(F)(F)F)c1F [Compound 61, 4-amino-3-chloro-6-(3-fluoro-2-methyl-4-(trifluoromethyl)phenyl)picolinic acid]",85 to 94

# Same assay, conditions: Viola tricolor, post-emergence, 336 h, VIOTR: wild pansy (Viola tricolor), application rate 70 (kg ai/ha; footnote: g ai/ha), read-out: Visual Growth Reduction (%) 14 Days After Application VIOTR
row,Compound,pest or weed control at 70 g/ha [%]
1,"Cc1c(-c2cc(N)c(Cl)c(C(=O)O)n2)ccc(C(F)(F)F)c1F [Compound 61, 4-amino-3-chloro-6-(3-fluoro-2-methyl-4-(trifluoromethyl)phenyl)picolinic acid]",0 to 29

# Same assay, conditions: Viola tricolor, post-emergence, 336 h, VIOTR: wild pansy (Viola tricolor), application rate 140 (kg ai/ha; footnote: g ai/ha), read-out: Visual Growth Reduction (%) 14 Days After Application VIOTR
row,Compound,pest or weed control at 140 g/ha [%]
1,"Cc1c(-c2cc(N)c(Cl)c(C(=O)O)n2)ccc(C(F)(F)F)c1F [Compound 61, 4-amino-3-chloro-6-(3-fluoro-2-methyl-4-(trifluoromethyl)phenyl)picolinic acid]",0 to 29
